In patent US11505617B2, “Benzodiazepine derivatives” (IMMUNOGEN, INC., priority 2009, dated 2022):
Read-outs that look alike come from different tables or passages of the source.

B1: huN901-IGN03 (conjugate, chains of the INN, looked up)
VH: QVQLVESGGGVVQPGRSLRLSCAASGFTFSSFGMHWVRQAPGKGLEWVAYISSGSFTIYYADSVKGRFTISRDNSKNTLYLQMNSLRAEDTAVYYCARMRKGYAMDYWGQGTLVTVSS
VL: DVVMTQSPLSLPVTLGQPASISCRSSQIIIHSDGNTYLEWFQQRPGQSPRRLIYKVSNRFSGVPDRFSGSGSGTDFTLKISRVEAEDVGVYYCFQGSHVPHTFGQGTKVEIK
modifications: IGN03 indolinobenzodiazepine payload

Experiments:
Ramos cells = test: In vitro cytotoxicity, Ramos cells; assay type: cell-based; settings: Homo sapiens, read-out: IC50, in vitro antiproliferative activity
Text: (§1) The in vitro cytotoxicity of the cytotoxic compounds (e.g., indolinobenzodiazepine or oxazolidinobenzodiazepine), derivatives thereof, dimers thereof or conjugates thereof of the present invention can be evaluated for their ability to suppress proliferation of various cancerous cell lines in vitro (Tables 1, 2 in FIGS. 31, 32.). For example, cell lines such as the human breast carcinoma line SK-Br-3, or the human epidermoid carcinoma cell line KB, can be used for the assessment of cytotoxicity of these new compounds. Cells to be evaluated can be exposed to the compounds for 72 hours and the surviving fractions of cells measured in direct assays by known methods. IC50 values can then be calculated from the results of the assays.
(§2) Conjugates of cell-binding agents with cytotoxic agents of the invention can be evaluated for their ability to suppress proliferation of various unwanted cell lines in vitro. For example, cell lines such as the human colon carcinoma line COLO 205, the rhabdomyosarcoma cell line RH-30, and the multiple myeloma cell line MOLP-8 can be used for the assessment of cytotoxicity of these conjugates. Cells to be evaluated can be exposed to the compounds for 1-5 days and the surviving fractions of cells measured in direct assays by known methods. IC50 values can then be calculated from the results of the assays.
General Procedure Used: Samples of IGN Free Drugs or IGN Conjugates were added to 96-well flat bottomed tissue culture plates and titrated using serial dilutions to cover the desired molar range. Antigen positive (Ag+) or Antigen negative (Ag−) cells were added to the wells in specific cell densities in such a way that there were triplicate samples for each drug concentration for each corresponding cell line. The plates were then incubated at 37° C. in an atmosphere of 5% CO2 for 4-5 days depending on the cell line. COLO 205 (1,000 cells/well), Namalwa (3,000 cells/well)—4 days; RH30(1,000 cells/well), Ramos (10,000 cells/well), KB (1,000 cells/well)—5 days)
(§3) At the end of the incubation period cytotoxic potencies were then assessed using a WST-based cell viability assay and surviving cells were measured by developing with WST (2-7 hours). The absorbance in each well was measured and the surviving fraction of cells at each concentration was plotted to reveal the cytotoxicity and antigen specificity (of the conjugates).

[1] = test system: single stranded DNA (ssDNA); test: DNA probe assay control with single stranded DNA; assay type: binding; settings: control experiments
Protocol: (§4) Reaction conditions: dsDNA ([…] final concentration) in 100 mM TRIS, 1 mM EDTA, pH 8 was mixed with 3.7 molar equivalents of IGN-01 (compound 18), IGN-02 (compound 19), or IGN-09 (compound 15) dissolved in acetonitrile (final acetonitrile concentration <2% by volume). The reaction was incubated at 15° C. (below TM of the dsDNA) and 10 μl aliquots are injected on reverse phase-HPLC at various time points after mixing
(§5) HPLC conditions: Waters Xbridge C8 2.1×50 mm column, Buffer A: 100 mM hexafluoroisopropanol, 16.3 mM triethylamine, in water, Buffer B: Methanol; 98% A→100% B over 32 min, 0.25 ml/min flow, 60° C. column heat, 260 nm detection. Areas under the curve (AUC) for the probe DNA peak and the resulting IGN/DNA adduct peak are used to determine the % crosslinking at each time point of incubation.
(§6) DNA annealing: single stranded DNA (Invitrogen) was annealed into dsDNA using a Peltier thermal cycler (PTC-200, MJ Research). 1 mM DNA in 100 mM TRIS, 1 mM EDTA pH 8 was heated to 80° C. and then gradually cooled to 4° C. over 90 min in 15 degree steps. The resulting dsDNA was kept at 4° C. until used in the assay.

[2] = test system: double stranded DNA (dsDNA); test: DNA probe assay for IGN dimer binding and alkylation to double stranded DNA; settings: for binding and covalent adduct formation with double stranded DNA: dsDNA containing guanine residues on opposite strands
Protocol: as §4, §5, §6

COLO205-MDR = test: In vitro cytotoxicity, multi-drug resistant COLO 205 MDR cells; assay type: cell-based, human; settings: free compound; multi-drug resistant line vs COLO205
Text: as §1
Conjugates of cell-binding agents with cytotoxic agents of the invention can be evaluated for their ability to suppress proliferation of various unwanted cell lines in vitro. […] Cells to be evaluated can be exposed to the compounds for 1-5 days and the surviving fractions of cells measured in direct assays by known methods. IC50 values can then be calculated from the results of the assays. […]
At the end of the incubation period cytotoxic potencies were then assessed using a WST-based cell viability assay and surviving cells were measured by developing with WST (2-7 hours). […]

RH30 cells = test: In vitro cytotoxicity of conjugates, RH30 cells; assay type: cell-based, human
Text: as §2
General Procedure Used: Samples of IGN Free Drugs or IGN Conjugates were added to 96-well flat bottomed tissue culture plates and titrated using serial dilutions to cover the desired molar range. Antigen positive (Ag+) or Antigen negative (Ag−) cells were added to the wells in specific cell densities in such a way that there were triplicate samples for each drug concentration for each corresponding cell line. […]
as §3

Molecule | IC50 (Ramos cells; Ramos) [pM] | covalent adduct formation with single stranded DNA [1] | binding and covalent adduct formation with double stranded DNA [2] | also measured
COC(=O)CCCCOc1cc(COc2cc3c(cc2OC)C(=O)N2c4ccccc4C[C@H]2C=N3)cc(COc2cc3c(cc2OC)C(=O)N2c4ccccc4C[C@H]2C=N3)c1 [IGN03] | < 1 | – | – | –
COC(=O)COc1cc(COc2cc3c(cc2OC)C(=O)N2c4ccccc4C[C@H]2C=N3)cc(COc2cc3c(cc2OC)C(=O)N2c4ccccc4C[C@H]2C=N3)c1 [IGN05] | < 1 | – | – | –
COc1cc2c(cc1OCc1cccc(COc3cc4c(cc3OC)C(=O)N3c5ccccc5C[C@H]3C=N4)c1)N=C[C@@H]1Cc3ccccc3N1C2=O [IGN-01] | – | did not form covalent adducts | bind and covalently adduct | rate of DNA binding, dependence on DNA sequence ([2]; DNA with internal GATC motif vs GTAC sequence): binds faster to DNA containing an internal GATC motif; reaction with DNA probe substituted with deoxyInosine in place of guanine ([2]; probe containing no C-2 amino group): no reaction; IC50 (Ramos cells; free compounds with and without linker, Ramos cell line (Table 2)): < 1 pM
COc1cc2c(cc1OCc1cccc(COc3cc4c(cc3OC)C(=O)N3COC[C@H]3C=N4)c1)N=C[C@@H]1COCN1C2=O [IGN-02] | – | did not form covalent adducts | bind and covalently adduct | –
COc1cc2c(cc1OCCCOc1cc3c(cc1OC)C(=O)N1c4ccccc4C[C@H]1C=N3)N=C[C@@H]1Cc3ccccc3N1C2=O [IGN-09] | < 1 | did not form covalent adducts | bind and covalently adduct | fold higher IC50 on COLO205-MDR than COLO205 (COLO205-MDR): 4 fold
B1 | – | – | – | IC50 (RH30 cells; RH30 cells with an excess of unconjugated huN901 antibody): > 3000 pM; IC50 (RH30 cells; antigen positive RH30 cells): 15 pM
